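A five-concentration, 48-hour dose response in 96-well plates underlies each endpoint, interpolated linearly between surrounding concentrations. GI50: concentration for 50% inhibition of growth.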 Active and inactive are the calls of the source. Cut-off read from the data, not from the text of the source: active = GI50 up to about 1.1 µM and inactive = higher.
Key:
Assay in all cases: NCI tumour cell line growth inhibition, 48 h
SF-539 = test system: SF-539
SNB-19 = test system: SNB-19
SK-MEL-28 = test system: SK-MEL-28
OVCAR-3 = test system: OVCAR-3
M14 = test system: M14
PC-3 = test system: PC-3
CAKI-1 = test system: CAKI-1
UO-31 = test system: UO-31
SK-OV-3 = test system: SK-OV-3
SR = test system: SR
ACHN = test system: ACHN
RPMI-8226 = test system: RPMI-8226
HOP-62 = test system: HOP-62
NCI/ADR-RES = test system: NCI/ADR-RES
HCC 2998 = test system: HCC 2998
OVCAR-4 = test system: OVCAR-4
MDA-N = test system: MDA-N
SF-268 = test system: SF-268
MCF7 = test system: MCF7

Measured: GI50

COc1cccc(Nc2n[nH]c(NS(=O)(=O)c3cc(C)c(Cl)cc3S)n2)c1
inactive: SF-539 > 100 µM | SNB-19 > 100 µM | SK-MEL-28 > 100 µM | OVCAR-3 > 100 µM | M14 > 100 µM | PC-3 > 100 µM | CAKI-1 > 100 µM | UO-31 > 100 µM | SK-OV-3 > 100 µM | SR > 100 µM | ACHN > 100 µM | RPMI-8226 > 100 µM | HOP-62 > 100 µM | NCI/ADR-RES > 100 µM | HCC 2998 > 100 µM | OVCAR-4 > 100 µM | MDA-N > 100 µM | SF-268 > 100 µM | MCF7 > 100 µM

COC(=O)C1CC2C=CC1N(C(=O)OCc1ccccc1)C2 (centres undefined)
inactive: SF-539 > 100 µM | SNB-19 > 100 µM | SK-MEL-28 > 100 µM | OVCAR-3 > 100 µM | M14 > 100 µM | PC-3 > 100 µM | CAKI-1 > 100 µM | UO-31 > 100 µM | SK-OV-3 > 100 µM | SR 59.3 µM | ACHN > 100 µM | RPMI-8226 > 100 µM | HOP-62 > 100 µM | NCI/ADR-RES > 100 µM | HCC 2998 > 100 µM | OVCAR-4 > 100 µM | MDA-N > 100 µM | SF-268 > 100 µM | MCF7 98.2 µM

OCCCCn1cc(Cn2ncc3c(O)ncnc32)nn1
inactive: SF-539 > 100 µM | SNB-19 > 100 µM | SK-MEL-28 > 100 µM | OVCAR-3 > 100 µM | M14 > 100 µM | PC-3 > 100 µM | CAKI-1 > 100 µM | UO-31 > 100 µM | SK-OV-3 > 100 µM | SR > 100 µM | ACHN > 100 µM | RPMI-8226 > 100 µM | HOP-62 > 100 µM | NCI/ADR-RES > 100 µM | HCC 2998 > 100 µM | OVCAR-4 > 100 µM | MDA-N > 100 µM | SF-268 > 100 µM | MCF7 > 100 µM

CC(C)(C)NCC(O)c1ccc(O)c(CO)n1 (centres undefined)
inactive: SF-539 > 100 µM | SNB-19 > 100 µM | SK-MEL-28 > 100 µM | OVCAR-3 > 100 µM | M14 > 100 µM | PC-3 > 100 µM | CAKI-1 > 100 µM | UO-31 > 100 µM | SK-OV-3 > 100 µM | SR > 100 µM | ACHN > 100 µM | RPMI-8226 > 100 µM | HOP-62 > 100 µM | NCI/ADR-RES > 100 µM | HCC 2998 > 100 µM | OVCAR-4 > 100 µM | MDA-N > 100 µM | SF-268 > 100 µM | MCF7 > 100 µM

CCN1CCC(O)(/C=C/c2ccc(C)cc2)C(C(=O)/C=C/c2ccc(C)cc2)C1 (centres undefined)
inactive: SF-539 3.61 µM | SNB-19 9.42 µM | SK-MEL-28 5.86 µM | OVCAR-3 6.32 µM | M14 2.83 µM | PC-3 4.49 µM | CAKI-1 2.78 µM | UO-31 3.85 µM | SK-OV-3 15.6 µM | SR 2.37 µM | ACHN 3.7 µM | RPMI-8226 2.77 µM | HOP-62 12.5 µM | NCI/ADR-RES 2.61 µM | HCC 2998 2.29 µM | OVCAR-4 9.82 µM | MDA-N 3.18 µM | SF-268 9.57 µM | MCF7 2.36 µM

CCCCSc1n/c(=C\c2ccc(N(C)C)cc2)c2nnnn12
inactive: SF-539 > 100 µM | SNB-19 > 100 µM | SK-MEL-28 > 100 µM | OVCAR-3 > 100 µM | M14 > 100 µM | PC-3 > 100 µM | CAKI-1 > 100 µM | UO-31 73.8 µM | SK-OV-3 > 100 µM | SR > 100 µM | ACHN > 100 µM | RPMI-8226 > 100 µM | HOP-62 > 100 µM | NCI/ADR-RES > 100 µM | HCC 2998 > 100 µM | OVCAR-4 > 100 µM | MDA-N > 100 µM | SF-268 > 100 µM | MCF7 > 100 µM

CC(=C(C(=O)O)C(=O)O)c1cc(-c2cccs2)cc(-c2ccc(Cl)cc2)c1O
inactive: SF-539 14.6 µM | SNB-19 15.7 µM | SK-MEL-28 17.5 µM | OVCAR-3 14.9 µM | M14 17.7 µM | PC-3 13.6 µM | CAKI-1 17.4 µM | UO-31 11.9 µM | SK-OV-3 33.7 µM | SR 3.67 µM | ACHN 15.8 µM | RPMI-8226 2.78 µM | HOP-62 24.1 µM | NCI/ADR-RES 20.3 µM | HCC 2998 18.5 µM | OVCAR-4 26.7 µM | MDA-N 16.3 µM | SF-268 17.9 µM | MCF7 5.47 µM

COc1ccc(N2C(=O)C3c4[nH]c5ccc(OCc6ccccc6)cc5c4C4CCC(C(C)C)CC4C3C2=O)cc1 (centres undefined)
inactive: SF-539 6.03 µM | SNB-19 9.33 µM | SK-MEL-28 > 100 µM | OVCAR-3 > 58.5 µM | M14 > 48.6 µM | PC-3 > 89.9 µM | CAKI-1 > 30.7 µM | UO-31 > 57.1 µM | SK-OV-3 17.7 µM | SR 4.41 µM | ACHN 10.8 µM | RPMI-8226 > 72.6 µM | HOP-62 8.63 µM | NCI/ADR-RES 30.2 µM | HCC 2998 > 100 µM | OVCAR-4 19.4 µM | MDA-N > 100 µM | SF-268 17.2 µM | MCF7 99.1 µM

O=C(O)c1ccc(NS(=O)(=O)Cc2ccccc2)cc1
inactive: SF-539 > 100 µM | SNB-19 > 100 µM | SK-MEL-28 > 100 µM | OVCAR-3 > 100 µM | M14 > 100 µM | PC-3 > 100 µM | CAKI-1 > 100 µM | UO-31 > 100 µM | SK-OV-3 > 100 µM | SR > 100 µM | ACHN > 100 µM | RPMI-8226 > 100 µM | HOP-62 > 100 µM | NCI/ADR-RES > 100 µM | HCC 2998 > 100 µM | OVCAR-4 > 100 µM | MDA-N > 100 µM | SF-268 > 100 µM | MCF7 > 100 µM

CC(=O)/C(=C(/Br)I)c1ccccc1
inactive: SF-539 16.6 µM | SNB-19 17.3 µM | SK-MEL-28 11.2 µM | OVCAR-3 6.49 µM | M14 6.87 µM | PC-3 16.8 µM | CAKI-1 3.03 µM | UO-31 12.4 µM | SK-OV-3 28.6 µM | SR 1.94 µM | ACHN 13 µM | RPMI-8226 2.58 µM | HOP-62 14.1 µM | NCI/ADR-RES 9.35 µM | HCC 2998 6.81 µM | OVCAR-4 12.5 µM | MDA-N 3.45 µM | SF-268 12 µM | MCF7 6.47 µM

COc1ccccc1C(=O)NCC1CCCN2CCCCC12 (centres undefined)
inactive: SF-539 > 100 µM | SNB-19 > 100 µM | SK-MEL-28 > 100 µM | OVCAR-3 > 100 µM | M14 > 100 µM | PC-3 > 100 µM | CAKI-1 > 100 µM | UO-31 > 100 µM | SK-OV-3 > 100 µM | SR > 100 µM | ACHN > 100 µM | RPMI-8226 > 100 µM | HOP-62 > 100 µM | NCI/ADR-RES > 100 µM | HCC 2998 > 100 µM | OVCAR-4 > 100 µM | MDA-N > 100 µM | SF-268 > 100 µM | MCF7 > 100 µM

Reference: ChEMBL document CHEMBL1201862, “PubChem BioAssay data set” (2004)
